Data: ChEMBL document CHEMBL1909046, “DrugMatrix in vitro pharmacology data”

What was measured:
[1] = molecular target: T1, Cysteinyl leukotriene receptor 1 (Homo sapiens, UniProt Q9Y271); type: cell membranes, CHO-K1, Membrane; settings: cho-k1; note: in other assays of this panel Not Active means under 50% inhibition at 10 µM
T1 sequence (Q9Y271 whole entry): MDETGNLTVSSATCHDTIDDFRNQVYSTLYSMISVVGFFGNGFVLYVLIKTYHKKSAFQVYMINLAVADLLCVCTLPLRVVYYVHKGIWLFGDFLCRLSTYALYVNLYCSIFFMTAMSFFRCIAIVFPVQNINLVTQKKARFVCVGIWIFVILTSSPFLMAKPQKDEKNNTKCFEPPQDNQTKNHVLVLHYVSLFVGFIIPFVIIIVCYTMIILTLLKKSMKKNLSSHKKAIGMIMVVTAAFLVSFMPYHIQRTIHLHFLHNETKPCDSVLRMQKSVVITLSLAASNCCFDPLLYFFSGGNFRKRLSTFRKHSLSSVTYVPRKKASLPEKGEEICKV

D(1A) dopamine receptor = D(1A) dopamine receptor (Homo sapiens, UniProt P21728); assay: DRUGMATRIX: Dopamine D1 radioligand binding (ligand: [3H] SCH-23390); type: cell membranes, CHO, Membrane; settings: cho; Not Active = under 50% inhibition at 10 µM
[2] = DRUGMATRIX: Serotonin (5-Hydroxytryptamine) 5-HT3 radioligand binding (ligand: [3H] GR-65630); type: cell membranes, Membrane; settings: hek293; Not Active = under 50% inhibition at 10 µM
[3] = molecular target: Mitogen-activated protein kinase 3 (Homo sapiens, UniProt P27361); assay: DRUGMATRIX: Protein Serine/Threonine Kinase, ERK1 enzyme inhibition (substrate: Myelin Basic Protein); parameters: species or system Escherichia coli; settings: Not Active = under 50% inhibition at 10 µM
Cytochrome P450 1A2 = molecular target: T2, Cytochrome P450 1A2 (Homo sapiens, UniProt P05177); settings: bti-tn-5b1-4; note: in other assays of this panel Not Active means under 50% inhibition at 10 µM
T2 sequence (P05177 whole entry): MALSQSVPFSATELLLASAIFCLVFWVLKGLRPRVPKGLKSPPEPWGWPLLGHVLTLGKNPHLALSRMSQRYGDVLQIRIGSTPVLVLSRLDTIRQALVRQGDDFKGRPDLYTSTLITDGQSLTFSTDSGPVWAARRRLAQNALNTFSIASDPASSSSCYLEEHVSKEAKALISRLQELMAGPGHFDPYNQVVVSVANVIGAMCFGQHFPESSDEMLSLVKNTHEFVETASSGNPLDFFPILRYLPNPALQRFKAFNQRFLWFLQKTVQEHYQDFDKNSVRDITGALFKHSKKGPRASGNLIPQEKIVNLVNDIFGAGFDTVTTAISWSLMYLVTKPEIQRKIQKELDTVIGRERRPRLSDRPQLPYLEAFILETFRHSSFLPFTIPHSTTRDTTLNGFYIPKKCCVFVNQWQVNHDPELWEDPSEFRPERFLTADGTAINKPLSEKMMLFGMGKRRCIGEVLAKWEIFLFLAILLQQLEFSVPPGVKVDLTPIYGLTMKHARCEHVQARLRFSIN

[4] = molecular target: T3, Polyunsaturated fatty acid lipoxygenase ALOX15 (Oryctolagus cuniculus, UniProt P12530); assay: biochemical; type: tissue-based, Reticulocytes;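 note: inhibition of 15-lipoxygenase enzyme activity measured with linoleic acid as the substrate; in other assays of this panel Not Active means under 50% inhibition at 10 µM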
T3 sequence (P12530 whole entry): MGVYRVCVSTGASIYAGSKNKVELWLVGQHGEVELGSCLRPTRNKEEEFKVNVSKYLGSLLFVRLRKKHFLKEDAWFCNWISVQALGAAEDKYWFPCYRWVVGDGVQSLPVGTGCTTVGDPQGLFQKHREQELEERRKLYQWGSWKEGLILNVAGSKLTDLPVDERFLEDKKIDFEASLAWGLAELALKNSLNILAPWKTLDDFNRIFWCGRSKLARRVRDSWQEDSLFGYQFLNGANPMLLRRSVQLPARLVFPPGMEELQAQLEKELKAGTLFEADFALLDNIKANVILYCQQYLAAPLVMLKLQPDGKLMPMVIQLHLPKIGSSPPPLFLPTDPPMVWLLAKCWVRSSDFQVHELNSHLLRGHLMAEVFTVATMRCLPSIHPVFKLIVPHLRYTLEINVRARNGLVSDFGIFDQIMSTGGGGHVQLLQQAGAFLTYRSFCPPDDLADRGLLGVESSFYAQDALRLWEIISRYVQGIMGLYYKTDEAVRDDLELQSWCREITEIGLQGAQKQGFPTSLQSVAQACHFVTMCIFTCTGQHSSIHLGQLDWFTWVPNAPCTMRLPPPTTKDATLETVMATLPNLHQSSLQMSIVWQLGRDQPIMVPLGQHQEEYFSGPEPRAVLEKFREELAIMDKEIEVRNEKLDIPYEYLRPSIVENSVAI

Chain of D(1A) dopamine receptor (P21728 whole entry): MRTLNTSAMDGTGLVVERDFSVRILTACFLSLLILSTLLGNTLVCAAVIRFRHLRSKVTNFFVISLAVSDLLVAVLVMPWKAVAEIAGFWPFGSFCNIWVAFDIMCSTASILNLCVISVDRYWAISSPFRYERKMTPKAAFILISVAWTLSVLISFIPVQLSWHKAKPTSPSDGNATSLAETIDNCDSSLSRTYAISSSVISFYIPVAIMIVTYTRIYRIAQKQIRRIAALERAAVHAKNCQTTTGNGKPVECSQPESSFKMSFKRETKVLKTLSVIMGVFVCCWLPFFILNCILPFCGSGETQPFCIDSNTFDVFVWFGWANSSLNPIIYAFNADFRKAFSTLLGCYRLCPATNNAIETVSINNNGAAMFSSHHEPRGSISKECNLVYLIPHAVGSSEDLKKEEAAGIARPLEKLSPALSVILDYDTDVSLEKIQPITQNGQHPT
Chain of Mitogen-activated protein kinase 3 (P27361 whole entry): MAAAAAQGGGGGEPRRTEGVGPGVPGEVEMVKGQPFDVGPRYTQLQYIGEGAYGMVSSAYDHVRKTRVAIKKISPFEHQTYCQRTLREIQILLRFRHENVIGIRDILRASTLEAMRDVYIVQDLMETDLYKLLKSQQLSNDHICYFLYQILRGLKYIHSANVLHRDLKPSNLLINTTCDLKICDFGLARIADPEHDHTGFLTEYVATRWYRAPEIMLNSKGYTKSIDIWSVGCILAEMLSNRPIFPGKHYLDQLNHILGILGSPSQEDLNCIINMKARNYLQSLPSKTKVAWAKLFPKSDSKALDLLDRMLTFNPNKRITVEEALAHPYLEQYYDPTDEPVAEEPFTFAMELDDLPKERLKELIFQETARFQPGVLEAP

Molecule	IC50 [1]	IC50 (D(1A) dopamine receptor)	IC50 [2]	Ki [2]	IC50 [3]	IC50 (Cytochrome P450 1A2)	Ki (Cytochrome P450 1A2)	IC50 ([4]; read-out: IC50)	IC50 ([4]; reticulocytes)	IC50 ([3]; read-out: IC50)	Ki [1]	Ki (D(1A) dopamine receptor)	Ki [3]	Ki ([4]; reticulocytes)
N[C@@H](Cc1ccc(O)c(O)c1)C(=O)O [LEVODOPA]	Not Active	Not Active	Not Active	Not Active	Not Active	Not Active	Not Active	2.26 µM						
O=NN(CCCl)C(=O)NC1CCCCC1 [LOMUSTINE]	Not Active	Not Active	Not Active	Not Active	Not Active	Not Active	Not Active		Not Active					
COc1nc(C)nc(Cl)c1NC1=NCCN1 [MOXONIDINE]	Not Active	Not Active	Not Active	Not Active	Not Active	Not Active	Not Active		Not Active					
COc1c(C)c2c(c(O)c1C/C=C(\C)CCC(=O)O)C(=O)OC2 [MYCOPHENOLIC ACID]	Not Active	Not Active	Not Active	Not Active	Not Active	Not Active	Not Active		Not Active					
O=c1ncn2nc(Sc3ccc(F)cc3F)ccc2c1-c1c(Cl)cccc1Cl [NEFLAMAPIMOD]	Not Active	Not Active	Not Active	Not Active	Not Active	Not Active	Not Active		Not Active					
CO[C@H]1/C=C/O[C@@]2(C)Oc3c(C)c(O)c4c(O)c(c(/C=N/N5CCN(C)CC5)c(O)c4c3C2=O)NC(=O)/C(C)=C\C=C\[C@H](C)[C@H](O)[C@@H](C)[C@@H](O)[C@@H](C)[C@H](OC(C)=O)[C@@H]1C [RIFAMPIN]	Not Active	Not Active	Not Active	Not Active	Not Active	Not Active	Not Active	2.95 µM						
C=CCC1(C(C)CCC)C(=O)NC(=O)NC1=O (configuration not stated) [SECOBARBITAL]	Not Active	Not Active	Not Active	Not Active	Not Active	Not Active	Not Active		Not Active					
C[C@@H]1CN(c2c(F)c(N)c3c(=O)c(C(=O)O)cn(C4CC4)c3c2F)C[C@H](C)N1 [SPARFLOXACIN]	Not Active	Not Active	Not Active	Not Active	Not Active	Not Active	Not Active		Not Active					
Cc1noc(NS(=O)(=O)c2ccc(N)cc2)c1C [SULFISOXAZOLE]	Not Active	Not Active	Not Active	Not Active	Not Active	Not Active	Not Active		Not Active					
Nc1c2c(nc3ccccc13)CCCC2 [TACRINE]	Not Active	Not Active	Not Active	Not Active	Not Active	Not Active	Not Active		Not Active					
Nc1nc2nc[nH]c2c(=S)[nH]1 [THIOGUANINE]	Not Active	Not Active	Not Active	Not Active		Not Active	Not Active	16.2 µM		5.52 µM				
Cc1cccc(N(C)C(=S)Oc2ccc3ccccc3c2)c1 [TOLNAFTATE]	Not Active	Not Active	Not Active	Not Active	Not Active	Not Active	Not Active		Not Active					
NC[C@H]1CC[C@H](C(=O)O)CC1 [TRANEXAMIC ACID]	Not Active	Not Active	Not Active	Not Active	Not Active	Not Active	Not Active		Not Active					
CC1(C)O[C@@H]2C[C@H]3[C@@H]4CCC5=CC(=O)C=C[C@]5(C)[C@@]4(F)[C@@H](O)C[C@]3(C)[C@]2(C(=O)CO)O1 [TRIAMCINOLONE ACETONIDE]	Not Active	Not Active	Not Active	Not Active	Not Active	Not Active	Not Active		Not Active					
NS(=O)(=O)c1cc2c(cc1Cl)NC(C(Cl)Cl)NS2(=O)=O (configuration not stated) [TRICHLORMETHIAZIDE]	Not Active	Not Active	Not Active	Not Active	Not Active	Not Active	Not Active		Not Active					
Cc1c(C)c2c(c(C)c1O)CCC(C)(COc1ccc(CC3SC(=O)NC3=O)cc1)O2 (configuration not stated) [TROGLITAZONE]	Not Active	Not Active	Not Active	Not Active	Not Active	Not Active	Not Active		Not Active					
N[C@@H]1[C@H]2CN(c3nc4c(cc3F)c(=O)c(C(=O)O)cn4-c3ccc(F)cc3F)C[C@@H]12 [TROVAFLOXACIN]	Not Active	Not Active	Not Active	Not Active	Not Active	Not Active	Not Active		Not Active					
N#CC(C#N)=Cc1ccc(O)c(O)c1 [TYRPHOSTIN 23]	Not Active	Not Active	Not Active	Not Active	Not Active	Not Active	Not Active		Not Active					
CC[C@]1(O)C[C@H]2CN(CCc3c([nH]c4ccccc34)[C@@](C(=O)OC)(c3cc4c(cc3OC)N(C=O)[C@H]3[C@@](O)(C(=O)OC)[C@H](OC(C)=O)[C@]5(CC)C=CCN6CC[C@]43[C@@H]65)C2)C1 [VINCRISTINE]	Not Active	Not Active	Not Active	Not Active	Not Active	Not Active	Not Active		Not Active					
CCCOc1ccccc1-c1nc2nn[nH]c2c(=O)[nH]1 [ZAPRINAST]	Not Active	Not Active	Not Active	Not Active	Not Active	Not Active	Not Active		Not Active					
SODIUM NITROPRUSSIDE	Not Active	Not Active	Not Active	Not Active	Not Active	Not Active	Not Active		Not Active		Not Active	Not Active	Not Active	Not Active
